Experimental data: patent publication US20230286948A1 (HUYABIO International, LLC, priority 2022, published 2023)

The molecules below were run against MLL1-WDR5 protein-protein interaction (Homo sapiens (Human), UniProt P61964) (assay: WDR5 TR-FRET assay (MLL1-WDR5 PPI inhibition)). Details: 5 nM WDR5 protein, 10 nM peptide, read-out: IC50 (nM), MLL1-WDR5 PPI inhibitory activity.
Format: binding
Protocol: WDR5 TR-FRET Assay Procedure: Stock compounds were transferred to the assay plate by Echo Liquid Handler. […] Stock compounds were incubated with WDR5 protein for 30 min at room temperature. Plates were covered, protected from light and incubated for 60 min at room temperature, after adding the peptide and Tb-Ab. EnVision Multimode Plate Reader (PerkinElmer) was used for the TR-FRET assay with excitation wavelength at 340 nm and emission wavelength at 495 and 520 nm. The ratio of the 520/495 wavelengths were used to assess the degree of the FRET signal. IC50 was calculated by fitting the inhibition data using XLfit software to sigmoidal dose-response model.
With `CN1CCN(c2ccc(-n3cc(C(=O)NCCCN4CCOCC4)nn3)cc2NC(=O)c2cnc(Cl)cc2N)CC1` [Example 22, 4-amino-6-chloro-N-(2-(4-methylpiperazin-1-yl)-5-(4-((3-morpholinopropyl)carbamoyl)-1H-1,2,3-triazol-1-yl)phenyl)nicotinamide] the IC50 was > 10000 nM.
`CN1CCN(c2ccc(-n3cc(C(=O)NCCCN4CCOCC4)nn3)cc2NC(=O)c2cnc(Cl)cc2N(C)C)CC1` [Example 23, 6-chloro-4-(dimethylamino)-N-[2-(4-methylpiperazin-1-yl)-5-[4-(3-morpholinopropylcarbamoyl)triazol-1-yl]phenyl]pyridine-3-carboxamide] was tested, and the IC50 was > 10000 nM.
In the case of `Cc1cc(N)ncc1C(=O)Nc1cc(-n2cc(C(=O)NCCCN3CCOCC3)nn2)ccc1N1CCN(C)CC1` [Example 24, 6-amino-4-methyl-N-(2-(4-methylpiperazin-1-yl)-5-(4-((3-morpholinopropyl)carbamoyl)-1H-1,2,3-triazol-1-yl)phenyl)nicotinamide], the IC50 is reported as > 10000 nM.
`Cc1cc(F)ncc1C(=O)Nc1cc(-n2cc(C(=O)NCCCN3CCOCC3)nn2)ccc1N1CCN(C)CC1` [Example 25, 6-fluoro-4-methyl-N-(2-(4-methylpiperazin-1-yl)-5-(4-((3-morpholinopropyl)carbamoyl)-1H-1,2,3-triazol-1-yl)phenyl)nicotinamide] was tested, and the IC50 was > 10000 nM.
For `Cc1ncc(C(=O)Nc2cc(-n3cc(C(=O)NCCCN4CCOCC4)nn3)ccc2N2CCN(C)CC2)c(C(F)(F)F)n1` [Example 26, 2-methyl-N-(2-(4-methylpiperazin-1-yl)-5-(4-((3-morpholinopropyl)carbamoyl)-1H-1,2,3-triazol-1-yl)phenyl)-4-(trifluoromethyl)pyrimidine-5-carboxamide], the IC50 was > 10000 nM.
For `CSc1ncc(C(=O)Nc2cc(-n3cc(C(=O)NCCCN4CCOCC4)nn3)ccc2N2CCN(C)CC2)c(C(F)(F)F)n1` [Example 27, N-(2-(4-methylpiperazin-1-yl)-5-(4-((3-morpholinopropyl)carbamoyl)-1H-1,2,3-triazol-1-yl)phenyl)-2-(methylthio)-4-(trifluoromethyl)pyrimidine-5-carboxamide], the IC50 was > 10000 nM.
With `CN1CCN(c2ccc(-n3cc(C(=O)NCCCN4CCOCC4)nn3)cc2NC(=O)c2cnc([S+](C)[O-])nc2C(F)(F)F)CC1` (centres unmarked) [Example 28, N-(2-(4-methylpiperazin-1-yl)-5-(4-((3-morpholinopropyl)carbamoyl)-1H-1,2,3-triazol-1-yl)phenyl)-2-(methylsulfinyl)-4-(trifluoromethyl)pyrimidine-5-carboxamide] the IC50 was > 10000 nM.
With `CCOc1ncc(C(=O)Nc2cc(-n3cc(C(=O)NCCCN4CCOCC4)nn3)ccc2N2CCN(C)CC2)c(C(F)(F)F)n1` [Example 29, 2-ethoxy-N-(2-(4-methylpiperazin-1-yl)-5-(4-((3-morpholinopropyl)carbamoyl)-1H-1,2,3-triazol-1-yl)phenyl)-4-(trifluoromethyl)pyrimidine-5-carboxamide] the IC50 was > 10000 nM.
In the case of `COc1nc(SC)ncc1C(=O)Nc1cc(-n2cc(C(=O)NCCCN3CCOCC3)nn2)ccc1N1CCN(C)CC1` [Example 30, 4-methoxy-N-(2-(4-methylpiperazin-1-yl)-5-(4-((3-morpholinopropyl)carbamoyl)-1H-1,2,3-triazol-1-yl)phenyl)-2-(methylthio)pyrimidine-5-carboxamide], the IC50 is reported as > 10000 nM.
For `Cc1cc(C(F)(F)F)ncc1C(=O)Nc1cc(-n2cc(C(=O)NCCCN3CCOCC3)nn2)ccc1N1CCN(C)CC1` [Example 31, 4-methyl-N-(2-(4-methylpiperazin-1-yl)-5-(4-((3-morpholinopropyl)carbamoyl)-1H-1,2,3-triazol-1-yl)phenyl)-6-(trifluoromethyl)nicotinamide], the IC50 was > 10000 nM.
For `CN1CCN(c2ccc(-n3cc(C(=O)NCCCN4CCOCC4)nn3)cc2NC(=O)c2nnc(Cl)cc2Cl)CC1` [Example 32, 4,6-dichloro-N-(2-(4-methylpiperazin-1-yl)-5-(4-((3-morpholinopropyl)carbamoyl)-1H-1,2,3-triazol-1-yl)phenyl)pyridazine-3-carboxamide], the IC50 was > 10000 nM.
In the case of `CN1CCN(c2ccc(-n3cc(C(=O)NCCCN4CCOCC4)nn3)cc2NC(=O)c2nnc(Cl)cc2N)CC1` [Example 33, 4-amino-6-chloro-N-(2-(4-methylpiperazin-1-yl)-5-(4-((3-morpholinopropyl)carbamoyl)-1H-1,2,3-triazol-1-yl)phenyl)pyridazine-3-carboxamide], the IC50 is reported as > 10000 nM.
In the case of `CN1CCN(c2ccc(-n3cc(C(=O)NCCCN4CCOCC4)nn3)cc2NC(=O)c2ncc(Cl)nc2Cl)CC1` [Example 34, 3,5-dichloro-N-[2-(4-methylpiperazin-1-yl)-5-[4-(3-morpholinopropylcarbamoyl)triazol-1-yl]phenyl]pyrazine-2-carboxamide], the IC50 is reported as > 10000 nM.
For `COc1cnc(C(=O)Nc2cc(-n3cc(C(=O)NCCCN4CCOCC4)nn3)ccc2N2CCN(C)CC2)c(Cl)n1` [Example 35, 3-chloro-5-methoxy-N-(2-(4-methylpiperazin-1-yl)-5-(4-((3-morpholinopropyl)carbamoyl)-1H-1,2,3-triazol-1-yl)phenyl)pyrazine-2-carboxamide], the IC50 was > 10000 nM.
`COc1cnc(C(=O)Nc2cc(-n3cc(C(=O)NCCCN4CCOCC4)nn3)ccc2N2CCN(C)CC2)c(OC)n1` [Example 36, 3,5-dimethoxy-N-(2-(4-methylpiperazin-1-yl)-5-(4-((3-morpholinopropyl)carbamoyl)-1H-1,2,3-triazol-1-yl)phenyl)pyrazine-2-carboxamide] was tested, and the IC50 was > 10000 nM.
`CN1CCN(c2ccc(-n3cc(C(=O)NCCCN4CCOCC4)nn3)cc2NC(=O)c2ccc(Cl)nc2C(F)(F)F)CC1` [Example 37, 6-chloro-N-(2-(4-methylpiperazin-1-yl)-5-(4-((3-morpholinopropyl)carbamoyl)-1H-1,2,3-triazol-1-yl)phenyl)-2-(trifluoromethyl)nicotinamide] showed an IC50 of 1960 nM.
For `COc1ccc(C(=O)Nc2cc(-n3cc(C(=O)NCCCN4CCOCC4)nn3)ccc2N2CCN(C)CC2)c(C(F)(F)F)n1` [Example 38, 6-methoxy-N-(2-(4-methylpiperazin-1-yl)-5-(4-((3-morpholinopropyl)carbamoyl)-1H-1,2,3-triazol-1-yl)phenyl)-2-(trifluoromethyl)nicotinamide], the IC50 was > 10000 nM.
Work on `CN1CCN(c2ccc(-n3cc(C(=O)NCCCN4CCOCC4)nn3)cc2NC(=O)c2ccc(C#N)nc2C(F)(F)F)CC1` [Example 39, 6-cyano-N-[2-(4-methylpiperazin-1-yl)-5-[4-(3-morpholinopropylcarbamoyl)triazol-1-yl]phenyl]-2-(trifluoromethyl)pyridine-3-carboxamide] yielded an IC50 of 1150 nM.
For `COc1ccc(CNc2ccc(C(=O)Nc3cc(-n4cc(C(=O)NCCCN5CCOCC5)nn4)ccc3N3CCN(C)CC3)c(C(F)(F)F)n2)cc1` [Example 42, 6-((4-methoxybenzyl)amino)-N-(2-(4-methylpiperazin-1-yl)-5-(4-((3-morpholinopropyl)carbamoyl)-1H-1,2,3-triazol-1-yl)phenyl)-2-(trifluoromethyl)nicotinamide], the IC50 was > 10000 nM.
For `CSc1ccc(C(=O)Nc2cc(-n3cc(C(=O)NCCCN4CCOCC4)nn3)ccc2N2CCN(C)CC2)c(C(F)(F)F)n1` [Example 43, N-(2-(4-methylpiperazin-1-yl)-5-(4-((3-morpholinopropyl)carbamoyl)-1H-1,2,3-triazol-1-yl)phenyl)-6-(methylthio)-2-(trifluoromethyl)nicotinamide], the IC50 was > 10000 nM.
`CN1CCN(c2ccc(-n3cc(C(=O)NCCCN4CCOCC4)nn3)cc2NC(=O)c2ccc(S(C)(=O)=O)nc2C(F)(F)F)CC1` [Example 44, N-[2-(4-methylpiperazin-1-yl)-5-[4-(3-morpholinopropylcarbamoyl)triazol-1-yl]phenyl]-6-methylsulfonyl-2-(trifluoromethyl)pyridine-3-carboxamide] was tested, and the IC50 was > 10000 nM.
Work on `CN1CCN(c2ccc(-n3cc(C(=O)NCCCN4CCOCC4)nn3)cc2NC(=O)c2ccc(Cl)cc2C(F)(F)F)CC1` [Example 46, 1-(3-(4-chloro-2-(trifluoromethyl)benzamido)-4-(4-methylpiperazin-1-yl)phenyl)-N-(3-morpholinopropyl)-1H-1,2,3-triazole-4-carboxamide] yielded an IC50 of 458 nM.
With `CN1CCN(c2ccc(-n3cc(C(=O)NCCCN4CCOCC4)nn3)cc2NC(=O)c2cc(C(F)(F)F)cc(C(F)(F)F)c2)CC1` [Example 47, 1-(3-(3,5-bis(trifluoromethyl)benzamido)-4-(4-methylpiperazin-1-yl)phenyl)-N-(3-morpholinopropyl)-1H-1,2,3-triazole-4-carboxamide] the IC50 was 3520 nM.
For `Cc1cc(Cl)c(C(=O)Nc2cc(-n3cc(C(=O)NCCCN4CCOCC4)nn3)ccc2N2CCN(C)CC2)cc1[N+](=O)[O-]` [Example 48, 1-[3-[(2-chloro-4-methyl-5-nitro-benzoyl)amino]-4-(4-methylpiperazin-1-yl)phenyl]-N-(3-morpholinopropyl)triazole-4-carboxamide], the IC50 was > 10000 nM.
Molecule `Cc1cc(Cl)c(C(=O)Nc2cc(-n3cc(C(=O)NCCCN4CCOCC4)nn3)ccc2N2CCN(C)CC2)cc1N` [Example 49, 1-(3-(5-amino-2-chloro-4-methylbenzamido)-4-(4-methylpiperazin-1-yl)phenyl)-N-(3-morpholinopropyl)-1H-1,2,3-triazole-4-carboxamide] has an IC50 of 4370 nM.
`C[C@@H]1CN(c2cc(F)c(-n3cc(C(=O)N4CCN(C)CC4)nn3)cc2NC(=O)c2cnc(Cl)cc2C(F)(F)F)C[C@H](C)N1C` [Example 51, 6-chloro-N-(4-fluoro-5-(4-(4-methylpiperazine-1-carbonyl)-1H-1,2,3-triazol-1-yl)-2-((3S,5R)-3,4,5-trimethylpiperazin-1-yl)phenyl)-4-(trifluoromethyl)nicotinamide] showed an IC50 of 326 nM.
